The values that follow are results of earlier work, collected in patent US20180125916A1, “System and Method for Natural Hair Loss Prevention Oil” (priority 2016, published 2018).

This data set concerns male pattern baldness.

Turning to `CC(C)(C)NC(=O)[C@H]1CC[C@H]2[C@@H]3CC[C@H]4NC(=O)C=C[C@]4(C)[C@H]3CC[C@]12C` [Finasteride], the “sexual dysfunction side effect” value (administered orally) is given as “known to cause permanent sexual dysfunction”.

As to `Nc1cc(N2CCCCC2)nc(N)[n+]1[O-]` [Minoxidil], the shedding on use entry (first 2 months of use) is “can cause shedding in the first 2 months of use”. For the same molecule, the “itching as a side effect” value (in vivo) is “high likelihood of a considerable itching”.
